Measured values published in US10758549B2, “Compositions of obeticholic acid and methods of use” (Intercept Pharmaceuticals, Inc., priority 2015, dated 2020).

System: subjects with primary biliary cirrhosis
Assay: Example 8: OCA in combination with UDCA in subjects with primary biliary cirrhosis
Type: in vivo, human
Method: This example describes a study conducted using an international, multi-center, randomized, double-blind, placebo-controlled, multi-dose, parallel group to determine efficacy and safety of obeticholic acid (OCA) in combination with ursodeoxycholic acid (UDCA) in subjects with primary biliary cirrhosis.
Key Exclusion criteria • Use of colchicine, methotrexate, azathioprine, or systemic corticosteroids • Screening conjugated (direct) bilirubin>2×ULN; ALT or AST>5×ULN; serum creatinine>1.5 mg/dL (133 μmol/L) • History or presence of hepatic decompensation (e.g., variceal bleeds, encephalopathy, or poorly controlled ascites) • History or presence of other concomitant liver diseases or human immunodeficiency virus (HIV) or other viral hepatitis infection • Clinically significant medical condition, and gastrointestinal conditions affecting drug ADME
The percent change (%) in serum ALP from Baseline to End of Study (EOS) was tested where [EOS=Day 85 or last observed ALP value on treatment]
Also observed were the absolute and percent changes in serum ALP levels from Baseline to Day 15, Day 29, Day 57, Day 85/ET and Follow-Up (Day 99). Patients were examined for the absolute and percent change in serum gamma-glutamyl transferase (GGT), alanine aminotransferase (ALT), and aspartate aminotransferase (AST) values from Baseline to Day 15, Day 29, Day 57, Day 85/ET and Follow-Up (Day 99). Patients were examined for absolute and percent changes in serum albumin and conjugated (direct) bilirubin values from Baseline to Day 15, Day 29, Day 57, Day 85/ET and Follow-Up (Day 99). Patients' Enhanced liver fibrosis (ELF) score and change in levels of its components, hyaluronic acid, aminoterminal peptide of pro-collagen III, and tissue inhibitor of matrix metalloproteinase-1 from Baseline to Day 85/ET were performed. The absolute and percent changes in levels of C-reactive protein, non-esterified fatty acid, tumor necrosis factor alpha, tumor necrosis factor beta, tumor growth factor beta, bile acids, glutathione, immunoglobulin M, and osteopontin from Baseline to Day 85/ET were taken.
Overall, 165 subjects (100%) received at least 1 dose of investigational product (ITT and Safety Populations) and 136 subjects comprised the Completer Population. One hundred sixty-one subjects (98%) were included for the analysis of the mITT Population as measured by the percent change in ALP from Baseline to EOS; the mITT Population for sensitivity analysis of the primary endpoint included 163 subjects. It should be noted that the mITT population was defined for the primary analysis as all patients randomized who received at least one dose of study medication and had at least one post-baseline ALP evaluation which was taken at most seven days after their last dose of study medication. (See FIG. 10). The mITT Population for the sensitivity analysis included ALP assessments obtained up to 15 days after the last investigational product use (unlike 7 days for primary endpoint). The number of subjects was balanced across all groups in all analysis populations with the exception of the Completer Population due to the higher proportion of discontinuations with OCA 50 mg.

[1] = OCA 10 mg + UDCA, Completer (n = 32)
[2] = OCA 25 mg + UDCA, Completer (n = 42)
[3] = OCA 50 mg + UDCA, Completer (n = 25)

CC[C@H]1[C@@H](O)[C@@H]2[C@H](CC[C@]3(C)[C@@H]([C@H](C)CCC(=O)O)CC[C@@H]23)[C@@]2(C)CC[C@@H](O)C[C@@H]12 [OCA, 3α,7α-dihydroxy-6α-ethyl-5β-cholan-24-oic acid]
ALP Mean Change, Baseline to Day 85/ET [1]: −86.3 U/L
ALP Mean Percent Change, Baseline to Day 85/ET [1]: −26.7%
ALP Median Change, Baseline to Day 85/ET [1]: −61.3 U/L
ALP Median Percent Change, Baseline to Day 85/ET [1]: −23.5%
ALP at Day 85/ET, Mean [1]: 212.3 U/L
ALP at Day 85/ET, Median [1]: 175.0 U/L
ALP Mean Change, Baseline to Day 85/ET (OCA 10 mg + UDCA, ITT (n = 38)): −75.4 U/L
ALP Mean Percent Change, Baseline to Day 85/ET (OCA 10 mg + UDCA, ITT (n = 38)): −23.3%
ALP Median Change, Baseline to Day 85/ET (OCA 10 mg + UDCA, ITT (n = 38)): −47.5 U/L
ALP Median Percent Change, Baseline to Day 85/ET (OCA 10 mg + UDCA, ITT (n = 38)): −21.0%
ALP at Day 85/ET, Mean (OCA 10 mg + UDCA, ITT (n = 38)): 219.0 U/L
ALP at Day 85/ET, Median (OCA 10 mg + UDCA, ITT (n = 38)): 177.5 U/L
ALP Mean Change, Baseline to Day 85/ET [2]: −76.0 U/L
ALP Mean Percent Change, Baseline to Day 85/ET [2]: −26.6%
ALP Median Change, Baseline to Day 85/ET [2]: −71.3 U/L
ALP Median Percent Change, Baseline to Day 85/ET [2]: −28.2%
ALP at Day 85/ET, Mean [2]: 199.0 U/L
ALP at Day 85/ET, Median [2]: 187.5 U/L
ALP Mean Change, Baseline to Day 85/ET (OCA 25 mg + UDCA, ITT (n = 48)): −65.0 U/L
ALP Mean Percent Change, Baseline to Day 85/ET (OCA 25 mg + UDCA, ITT (n = 48)): −24.0%
ALP Median Change, Baseline to Day 85/ET (OCA 25 mg + UDCA, ITT (n = 48)): −69.3 U/L
ALP Median Percent Change, Baseline to Day 85/ET (OCA 25 mg + UDCA, ITT (n = 48)): −27.8%
ALP at Day 85/ET, Mean (OCA 25 mg + UDCA, ITT (n = 48)): 225.0 U/L
ALP at Day 85/ET, Median (OCA 25 mg + UDCA, ITT (n = 48)): 187.5 U/L
ALP Mean Change, Baseline to Day 85/ET [3]: −101.8 U/L
ALP Mean Percent Change, Baseline to Day 85/ET [3]: −32.5%
ALP Median Change, Baseline to Day 85/ET [3]: −76.0 U/L
ALP Median Percent Change, Baseline to Day 85/ET [3]: −33.9%
ALP at Day 85/ET, Mean [3]: 179.1 U/L
ALP at Day 85/ET, Median [3]: 158.5 U/L
ALP Mean Change, Baseline to Day 85/ET (OCA 50 mg + UDCA, ITT (n = 41)): −62.9 U/L
ALP Mean Percent Change, Baseline to Day 85/ET (OCA 50 mg + UDCA, ITT (n = 41)): −20.0%
ALP Median Change, Baseline to Day 85/ET (OCA 50 mg + UDCA, ITT (n = 41)): −56.5 U/L
ALP Median Percent Change, Baseline to Day 85/ET (OCA 50 mg + UDCA, ITT (n = 41)): −22.7%
ALP at Day 85/ET, Mean (OCA 50 mg + UDCA, ITT (n = 41)): 227.9 U/L
ALP at Day 85/ET, Median (OCA 50 mg + UDCA, ITT (n = 41)): 197.0 U/L
